pIC50: −log10 of the molar value. “And” between values parts separate entries of the source, which are not always exact repeats. Equal entries are not always repeated.
What was measured:
[1] = system: CKIα- and CKIδ-accelerated degradation of PER1; assay: Flag-tagged PER1 degradation by Western blot in HEK293T cells; type: cell-based; conditions: 24 h
[2] = system: Bmal1-dLuc U2OS cells; assay: Cytotoxicity in the U2OS circadian assay; type: cell-based, human
Procedure: (§1) The compound screen was done with the high-throughput circadian assay system as described previously. In brief, Bmal1-dLuc U2OS cells were suspended in the culture medium (DMEM supplemented with 10% fetal bovine serum, 0.29 mg/ml L-glutamine, 100 units/ml penicillin, and 100 µg/ml streptomycin) and plated onto 384-well white solid-bottom plates at 20 µl (2,000 cells) per well. After 2 d, 50 µl of the explant medium (DMEM supplemented with 2% B27, 10 mM HEPES, 0.38 mg/ml sodium bicarbonate, 0.29 mg/ml L-glutamine, 100 units/ml penicillin, 100 µg/ml streptomycin, 0.1 mg/ml gentamicin, and 1 mM luciferin, pH 7.2) was dispensed to each well, followed by the application of 500 nl of compounds (dissolved in DMSO; final 0.7% DMSO). The plate was covered with an optically clear film and set to luminescence monitoring system equipped with a CCD imager (ViewLux, Perkin Elmer). The luminescence was recorded every 2 h for 3–4 days. In follow-up studies, the luminescence was recorded every 100 min by using a microplate reader (Infinite M200, Tecan). The period parameter was obtained from the luminescence rhythm by curve fitting program CellulaRhythm or MultiCycle (Actimetrics), both of which gave similar results.

[3] = system: Bmal1-dLuc U2OS cells; assay: U2OS cell-based circadian assay (Bmal1-dLuc luminescence rhythms); parameters: species or system human
Procedure: as §1

[4] = system: CKIα- and CKIδ-dependent mobility-shift of PER1; assay: PER1 electrophoretic mobility-shift (phosphorylation) in HEK293T cells; type: cell-based; conditions: 10 or 20 µM, 24 h
Procedure: HEK293T cells (1.25×10^6 cells) were reverse transfected on 6-well plates by Lipofectamine 2000 with 1 µg each of expression vectors for C-terminally 3XFlag-tagged clock protein (in p3XFLAG-CMV-14, Sigma) and N-terminally HA-tagged kinase (in p3XFLAG-CMV-14). For ERK2, 0.05 µg of expression vector with 0.95 µg of empty vector was used because of its efficient expression. After 24 h, the cells were collected with ice-cold PBS and suspended in 100 µl of incubation buffer [50 mM Tris, 50 mM NaCl, 2 mM EDTA, 10% glycerol, 1 mM DTT, Complete Protease Inhibitor Cocktail (Roche), Phosphatase Inhibitor Cocktail 1 and 2 (Sigma), pH 8.0]. The mixture was supplemented with NP-40 (final 1%) and incubated on ice for 15 min, followed by centrifugation (16,000×g) at 4°C for 10 min. […] The bound proteins were eluted with SDS sample buffer, separated by SDS-PAGE (4%–12% gradient gel), and analyzed by Western blotting with anti-Flag antibody (Sigma, F1804) or anti-HA antibody conjugated with HRP (Roche, 12013819001). For the analysis of PER1 electrophoretic mobility-shift, the cell extracts were separated by SDS-PAGE (3%–8% gradient gel, Invitrogen) and analyzed by Western blotting with anti-Flag antibody or anti-α-tubulin antibody (Santa Cruz Biotechnology, sc-32293). Protein concentration of each sample was measured by the Lowry method using DC protein assay (BioRad).

[5] = target: T1, CDK7 (Homo sapiens, UniProt P50613); assay: In vitro kinase assay, CDK7; type: biochemical; conditions: ATP 5 µM; from Figure 2E
T1 construct: purchased Millipore 14-476
T1 sequence (P50613 whole entry): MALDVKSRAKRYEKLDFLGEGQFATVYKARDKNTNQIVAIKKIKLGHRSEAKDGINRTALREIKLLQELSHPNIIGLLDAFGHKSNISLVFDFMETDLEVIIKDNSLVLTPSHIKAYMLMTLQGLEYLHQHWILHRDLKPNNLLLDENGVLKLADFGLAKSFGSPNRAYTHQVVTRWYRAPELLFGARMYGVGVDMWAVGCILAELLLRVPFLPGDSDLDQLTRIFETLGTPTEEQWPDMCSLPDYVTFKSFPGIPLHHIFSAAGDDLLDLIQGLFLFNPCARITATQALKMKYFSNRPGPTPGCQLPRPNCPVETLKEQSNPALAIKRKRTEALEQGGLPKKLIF
T1 sequence (P51946 whole entry partner): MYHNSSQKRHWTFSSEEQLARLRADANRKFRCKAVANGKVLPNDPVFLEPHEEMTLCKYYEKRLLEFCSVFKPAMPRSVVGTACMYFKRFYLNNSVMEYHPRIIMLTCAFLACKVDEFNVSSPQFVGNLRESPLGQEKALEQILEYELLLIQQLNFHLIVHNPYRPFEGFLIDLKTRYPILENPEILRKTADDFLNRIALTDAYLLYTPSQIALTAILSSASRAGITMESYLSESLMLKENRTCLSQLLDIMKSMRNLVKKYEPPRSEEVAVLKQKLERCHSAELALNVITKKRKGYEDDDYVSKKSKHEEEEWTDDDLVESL
T1 sequence (P51948 whole entry partner): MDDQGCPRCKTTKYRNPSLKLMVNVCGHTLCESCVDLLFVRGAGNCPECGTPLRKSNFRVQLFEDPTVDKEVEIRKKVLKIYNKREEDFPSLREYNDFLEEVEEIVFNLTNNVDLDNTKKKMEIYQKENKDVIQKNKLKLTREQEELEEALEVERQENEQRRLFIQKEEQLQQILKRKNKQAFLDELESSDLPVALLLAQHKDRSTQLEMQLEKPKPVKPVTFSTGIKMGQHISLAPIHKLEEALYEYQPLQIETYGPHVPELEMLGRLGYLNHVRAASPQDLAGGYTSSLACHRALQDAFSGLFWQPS
Procedure: The CKIδ, CKIα, CDK7, and ERK2 kinase assays were performed on 384-well plates (10 µl volume). The reaction mixture was as follows: for CKIδ, 2 ng/µl CKIδ (Millipore, 14-520), 50 µM peptide substrate RKKKAEpSVASLTSQCSYSS corresponding to human PER2 Lys659-Ser674 [47], and CKI buffer (40 mM Tris, 10 mM MgCl2, 0.5 mM DTT, 0.1 mg/ml BSA, pH 7.5); for CKIα, 1 ng/µl CKIα (Invitrogen, PV3850), 50 µM CKI peptide substrate (Anaspec, 60547-1), and CKI buffer; for CDK7, 5 ng/µl CDK7 (Millipore, 14-476), 100 µM Cdk7/9 peptide substrate (Millipore, 12-526), and CKI buffer; for ERK2, 1.5 ng/µl ERK2 (Millipore, 14-550), 0.8 µg/µl MBP (Millipore, 13-104), and ERK buffer (50 mM Tris, 10 mM MgCl2, 0.5 mM DTT, 1 mM EGTA, pH 7.5). Five hundred nl of compound was added to the mixture (final 5% DMSO), and the reaction was started by adding ATP (final 5 µM). After incubation at 30°C for 3h, 10 µl of Kinase-Glo Luminescent Kinase Assay reagent (Promega) was added, and the luminescence was detected to determine remaining ATP amount. […] IC50 value was obtained by using Prism software (GraphPad Software).

[6] = system: adult tail fibroblasts; assay: Circadian period in adult tail fibroblasts from mPer2Luc knockin mice; type: cell-based, mouse
Procedure: Luminescence rhythms of adult tail fibroblasts and embryonic fibroblasts from mPer2^Luc knockin mice were analyzed similarly to U2OS cells, except that 1,800 cells were plated per well. Because of the low luminescence intensity of the fibroblasts, the higher sensitivity ViewLux imager was used for rhythm recording.

[7] = system: Bmal1-dLuc U2OS cells; assay: Time-course assay of endogenous PER1 abundance with parallel luminescence rhythms; type: cell-based, human; conditions: for Period of Bmal1-dLuc luminescence rhythm: control 0 µM 26 h; for Time of second trough of Bmal1-dLuc luminescence rhythm: control 0 µM 34 h; for Time of second peak of PER1 protein rhythm: control 0 µM 40 h
Procedure: Bmal1-dLuc U2OS cells were plated onto 6-well-plates (2.0×10^5 cells/well). After 2 d, the medium was replaced with 2 ml explant medium containing 0, 3, or 9 µM longdaysin. The plate was covered with film and kept at 36°C. At indicated time points, the cells were collected with ice-cold PBS and stored at −80°C. Then the cell pellets were homogenized in SDS sample buffer and analyzed by Western blotting with anti-PER1 antibody (Cosmo Bio, KAL-KI044) or anti-α-tubulin antibody. In parallel, luminescence rhythms of the cells plated on 35 mm dishes were recorded with LumiCycle luminometer at 36°C.

[8] = Bmal1-dLuc U2OS cells, from Figure 1B

CC(C)n1cnc2c(NCc3cccc(C(F)(F)F)c3)ncnc21 [Longdaysin, 9-isopropyl-N-(3-(trifluoromethyl)benzyl)-9H-purin-6-amine]
Inhibition of CKIα and CKIδ effects on PER1 degradation ([1]; 10 µM): partially inhibited | Inhibition of CKIα and CKIδ effects on PER1 degradation ([1]; 20 µM): strongly inhibited | Concentration showing cytotoxicity [2]: 71 µM | Period change (lengthening) ([3]; 10 µM, U2OS cells): > 10 h and 13 h | Concentration for period change, 5 h [3, 8]: 1.5 µM | Concentration for period change, 10 h [3, 8]: 5.7 µM | Concentration for period change, 15 h [3, 8]: 13 µM | Potency relative to compound 1 (times more potent) ([3]; period lengthening): 3 times | Reversibility of period effect after washout ([3]; washout, U2OS cells, mouse fibroblasts, lung (Figure S2)): reversible | Effect on CKIα- and CKIδ-dependent mobility-shift of PER1 [4]: reduced the CKIα- and CKIδ-dependent mobility-shift of PER1 | pIC50 [5]: 4.54 | Effect on circadian period [6]: dose-dependent period lengthening | Period of Bmal1-dLuc luminescence rhythm ([7]; 3 µM): 32 h | Time of second trough of Bmal1-dLuc luminescence rhythm ([7]; 3 µM): 38 h | Time of second peak of PER1 protein rhythm ([7]; 3 µM): 40 to 46 h | Period of Bmal1-dLuc luminescence rhythm ([7]; 9 µM): 38 h | Time of second trough of Bmal1-dLuc luminescence rhythm ([7]; 9 µM): 46 h | Time of second peak of PER1 protein rhythm ([7]; 9 µM): 52 h | Overall protein amount of endogenous PER1 ([7]; 3 or 9 µM versus 0 µM control): strongly up-regulated | PER1 mRNA level ([7]; 3 or 9 µM, RT-qPCR): without affecting its mRNA level

From paper PMC3001897, “High-Throughput Chemical Screen Identifies a Novel Potent Modulator of Cellular Circadian Rhythms and Reveals CKIα as a Clock Regulatory Kinase” (PLoS Biology, 2010)
